Results as given in patent US20260234147A1 (priority 2023, published 2026).
Like-named read-outs stand apart in the source and are kept apart here.

Experiments:
[1] = target: hKOR (Homo sapiens, UniProt P41145); assay: Radioligand binding assay (Eurofins Cerep), [3H]U69,593 displacement; settings: read-out: KOR Ki ± SEM
[2] = target: hDOR (Homo sapiens, UniProt P41143); assay: Radioligand binding assay (Eurofins Cerep), [3H]DADLE displacement; settings: read-out: DOR Ki ± SEM
[3] = target: hMOR (Homo sapiens, UniProt P35372); assay: Radioligand binding assay (Eurofins Cerep), [3H]DAMGO displacement
[4] = target: T1, α2A adrenergic receptor (Homo sapiens, UniProt P08913); assay: Radioligand binding assay (Eurofins Cerep), [3H]RX 821002 displacement; settings: read-out: Alpha2A Ki ± SEM
T1 construct: Eurofins Cerep (contract screening)
T1 sequence (P08913 1-465): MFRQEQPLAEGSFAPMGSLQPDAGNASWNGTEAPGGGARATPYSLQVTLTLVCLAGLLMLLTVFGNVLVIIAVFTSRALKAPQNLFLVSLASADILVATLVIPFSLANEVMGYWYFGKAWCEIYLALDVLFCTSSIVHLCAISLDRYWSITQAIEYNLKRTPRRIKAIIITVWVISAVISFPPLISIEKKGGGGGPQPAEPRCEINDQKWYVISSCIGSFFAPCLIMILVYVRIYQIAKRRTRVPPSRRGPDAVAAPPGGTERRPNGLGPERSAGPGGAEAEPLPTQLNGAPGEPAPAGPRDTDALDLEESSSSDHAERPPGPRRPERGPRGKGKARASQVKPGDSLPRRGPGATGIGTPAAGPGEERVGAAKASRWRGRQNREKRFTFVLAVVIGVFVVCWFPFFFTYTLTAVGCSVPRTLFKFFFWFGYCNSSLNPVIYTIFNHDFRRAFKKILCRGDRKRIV

[5] = Metabolic stability in rat liver microsomes; type: in vitro ADME; settings: for RLM stability: rat liver microsomes 1 mg/ml, substrate 1 μM, NADPH, 37° C.; for Whole liver clearance, CL int, H: in vitro intrinsic clearance in RLM scaled to whole organ (rat)
Method: In vitro metabolic stability of each compound was determined using rat liver microsomes in triplicate. Verapamil was used as a positive control to check the activity of the microsomes. The incubation mixtures consisted of rat liver microsomes (1 mg microsomal protein/ml), substrate (1 μM), and reduced NADPH (1 mM) in a total volume of 0.4 ml potassium phosphate buffer (50 mM, pH 7.4). Reactions were initiated with the addition of NADPH and kept in an incubator shaker at 37° C. Aliquots of 25 μl were withdrawn at 0, 5, 10, 15, 30, and 60 min and mixed with 125 μl of acetonitrile with formic acid (0.1% v/v) containing phenacetin (50 ng/ml; internal standard) for the termination of the reaction. The samples were then vortex mixed and filtered through a […] 96-well membrane filtration plate under centrifugation at speed of 2000×g for 5 min at 4° C. The filtrates were subjected to UPLC-mass spectrometry (MS/MS) analysis.
The intrinsic clearance of the compounds was calculated using a half-life employing the ‘substrate depletion’ approach. The apparent half-life was calculated from the pseudo-first-order rate constants obtained by linear regression of log (concentration) and time plots. The in vitro intrinsic clearance of IFN was estimated using the formula: […]
Where k is the slope of the line obtained by plotting the natural logarithmic of the percentage of parent remaining versus time and V is the volume of incubation.
The in vitro intrinsic clearance was scaled to whole-organ (hepatic) in vivo intrinsic CL (CLint,H) using the scaling factors available in the literature using equation (Mahmood I. Application of allometric principles for the prediction of pharmacokinetics in human and veterinary drug development. Advanced drug delivery reviews, 2007, 59(11), 1177-1192)
MPPGL represents the microsomal protein per gram of Sprague Dawley rat liver (45 mg/g) and liver weight per kg body weight was 40 g/kg.

[6] = Table A4, data summary #2, read-out: MOR Ki ± SEM
[7] = Table A1, data summary #1, read-out: MOR Ki ± SEM

Sequence of hDOR (P41143 whole entry): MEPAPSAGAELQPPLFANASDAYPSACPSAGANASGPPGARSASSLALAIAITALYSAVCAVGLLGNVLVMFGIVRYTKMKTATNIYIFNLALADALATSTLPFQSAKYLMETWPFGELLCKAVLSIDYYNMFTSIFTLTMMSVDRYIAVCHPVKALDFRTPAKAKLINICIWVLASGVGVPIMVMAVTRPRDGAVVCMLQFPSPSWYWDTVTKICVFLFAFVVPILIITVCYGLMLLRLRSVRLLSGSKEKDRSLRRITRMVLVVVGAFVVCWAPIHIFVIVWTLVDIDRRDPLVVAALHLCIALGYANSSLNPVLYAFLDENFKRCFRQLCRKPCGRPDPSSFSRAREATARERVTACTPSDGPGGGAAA
Sequence of hMOR (P35372 whole entry): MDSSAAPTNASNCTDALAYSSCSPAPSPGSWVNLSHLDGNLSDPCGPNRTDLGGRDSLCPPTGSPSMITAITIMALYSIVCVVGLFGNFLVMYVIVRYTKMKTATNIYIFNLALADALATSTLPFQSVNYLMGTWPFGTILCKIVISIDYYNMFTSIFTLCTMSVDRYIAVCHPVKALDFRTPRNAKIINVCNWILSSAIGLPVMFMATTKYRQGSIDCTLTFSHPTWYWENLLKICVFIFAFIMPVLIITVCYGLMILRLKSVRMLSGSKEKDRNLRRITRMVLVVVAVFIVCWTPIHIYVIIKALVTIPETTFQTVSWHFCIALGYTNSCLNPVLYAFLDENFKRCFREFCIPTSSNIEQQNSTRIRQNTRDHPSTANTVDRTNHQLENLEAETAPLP
Sequence of hKOR (P41145 whole entry): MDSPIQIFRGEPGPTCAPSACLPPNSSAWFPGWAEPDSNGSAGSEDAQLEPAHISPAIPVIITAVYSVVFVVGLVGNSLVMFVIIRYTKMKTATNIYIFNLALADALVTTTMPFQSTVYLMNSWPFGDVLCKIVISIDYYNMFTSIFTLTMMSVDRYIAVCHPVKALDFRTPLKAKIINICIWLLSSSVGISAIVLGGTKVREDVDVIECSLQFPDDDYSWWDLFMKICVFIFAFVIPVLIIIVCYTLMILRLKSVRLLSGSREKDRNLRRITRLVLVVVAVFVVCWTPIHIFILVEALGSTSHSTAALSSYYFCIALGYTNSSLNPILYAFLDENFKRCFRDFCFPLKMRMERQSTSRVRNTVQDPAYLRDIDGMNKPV

Compound	Ki ([1]; Table A1, data summary #1) [µM]	Ki ([1]; Table A4, data summary #2) [µM]	Ki ([2]; Table A1, data summary #1) [µM]	Ki ([2]; Table A4, data summary #2) [µM]	Ki [3, 6] [µM]	Ki ([3]; read-out: Ki at hMOR) [µM]	Ki ([4]; Table A4, data summary #2) [µM]	RLM stability [5] [min]	Ki [3, 7] [µM]	Whole liver clearance, CL int, H [5] [mL/min/kg]	Ki ([4]; Table A1, data summary #1) [µM]
CCCN(C)C(=O)/C(=C/OC)[C@H]1C[C@H]2c3[nH]c4cccc(OC)c4c3CCN2C[C@H]1CC [SUSM-521, (E)-2-((2S,3S,12bS)-3-ethyl-8-methoxy-1,2,3,4,6,7,12,12b-octahydroindolo[2,3-a]quinolizin-2-yl)-3-methoxy-N-methyl-N-propylacrylamide]	2.61 ± 0.588	2.61 ± 0.588	5.89 ± 0.105	4.03 ± 0.797	0.222 ± 0.033	0.167	1.51 ± 0.676	<5			
CC[C@@H]1CN2CCc3c([nH]c4cccc(OC)c34)[C@@H]2C[C@@H]1/C(=C\OC)C(=O)N(C)CC [SUSM-520, (E)-N-ethyl-2-((2S,3S,12bS)-3-ethyl-8-methoxy-1,2,3,4,6,7,12,12b-octahydroindolo[2,3-a]quinolizin-2-yl)-3-methoxy-N-methylacrylamide]	4.78 ± 1.14	4.78 ± 1.14	> 10	> 10	0.452 ± 0.033		0.938 ± 0.223	<5	0.459 ± 0.0407	879.7	
CC[C@@H]1CN2CCc3c([nH]c4cccc(OC)c34)[C@@H]2C[C@@H]1/C(=C\OC)C(=O)N1CCCCC1 [SUSM-518, (E)-2-((2S,3S,12bS)-3-ethyl-8-methoxy-1,2,3,4,6,7,12,12b-octahydroindolo[2,3-OMea]quinolizin-2-yl)-3-methoxy-1-(piperidin-1-yl)prop-2-en-1-one]	7.46 ± 1.42	7.46 ± 1.42	> 10	> 10	0.244 ± 0.055	0.129	0.523 ± 0.155	<5			
CC[C@@H]1CN2CCc3c([nH]c4cccc(OC)c34)[C@@H]2C[C@@H]1/C(=C\OC)C(=O)N1CCCC1 [SUSM-507, (E)-2-((2S,3S,12bS)-3-ethyl-8-methoxy-1,2,3,4,6,7,12,12b-octahydroindolo[2,3-a]quinolizin-2-yl)-3-methoxy-1-(pyrrolidin-1-yl)prop-2-en-1-one]	> 10	> 10	> 10	6.26 ± 3.17	0.655 ± 0.0766		4.99 ± 1.02	<5	0.655 ± 0.0766	833.8	9.85 ± 1.57
CCNC(=O)/C(=C/OC)[C@H]1C[C@H]2c3[nH]c4cccc(OC)c4c3CCN2C[C@H]1CC [SUSM-32, (E)-N-ethyl-2-((2S,3S,12bS)-3-ethyl-8-methoxy-1,2,3,4,6,7,12,12b-octahydroindolo[2,3-a]quinolizin-2-yl)-3-methoxyacrylamide]	> 10	> 10	> 10	> 10	4.22 ± 0.752		3.87 ± 0.984	>60	4.22 ± 0.752	11.4	4.29 ± 1.12
CC[C@@H]1CN2CCc3c([nH]c4cccc(OC)c34)[C@@H]2C[C@@H]1/C(=C\OC)C(=O)NC [SUSM-25, (E)-2-((2S,3S,12bS)-3-ethyl-8-methoxy-1,2,3,4,6,7,12,12b-octahydroindolo[2,3-a]quinolizin-2-yl)-3-methoxy-N-methylacrylamide]	> 10	> 10	> 10	> 10	3.52 ± 0.763		6.74 ± 1.91	>60	4.02 ± 0.728	8.9	7.04 ± 1.82
CCCNC(=O)/C(=C/OC)[C@H]1C[C@H]2c3[nH]c4cccc(OC)c4c3CCN2C[C@H]1CC [SUSM-27, (E)-2-((2S,3S,12bS)-3-ethyl-8-methoxy-1,2,3,4,6,7,12,12b-octahydroindolo[2,3-a]quinolizin-2-yl)-3-methoxy-N-propylacrylamide]	> 10	> 10	> 10	> 10	4.56 ± 0.692		6.45 ± 2.59	>60	4.56 ± 0.692	20.8	2.73 ± 1.26
